Values quoted from earlier work, collected in patent US5493006A, “Cyclic CRF analogs” (The Salk Institute for Biological Studies, priority 1993, dated 1996).
“Also recorded” adds a separate entry of the source. Ends that are not written are not given here.

What was measured:
[1] = system: secretion of ACTH and β-END-LI; details: in vitro and in vivo; background statement
[2] = injected peripherally; background statement

Substance | stimulation of ACTH and β-endorphin-like activities (β-END-Li) [1] | lowering of blood pressure [2]
oCRF: ovine corticotropin releasing factor, a 41-residue amidated peptide (SQEPPISLDLTFHLLREVLEMTKADQLAQQAHSNRKLLDIA-NH2; UniProt P01142 148-188, looked up) | stimulates the secretion of ACTH and β-endorphin; also recorded: stimulate ACTH and β-endorphin-like activities (β-END-Li) in vitro and in vivo | lowers blood pressure; also recorded: substantially lower blood pressure
rCRF: rat CRF, a homologous, amidated hentetracontapeptide; same formula as human CRF (SEEPPISLDLTFHLLREVLEMARAEQLAQQAHSNRKLMEII-NH2; UniProt P01143 145-185, looked up) | stimulate ACTH and β-endorphin-like activities (β-END-Li) in vitro and in vivo | substantially lower blood pressure
